According to patent EP0322391A1, “New phenylalkylamine derivatives” (priority 1987, dated 1989):
Where two headings read alike, the source gives them in different places.

Test system: OTMN-induced tremor in rat
Assay: Potentiation of oxotremorine (OTMN)-induced tremor in rat (potentiation of cholinergic responses)
Assay type: in vivo
Settings: for minimal effective dose: Rattus norvegicus, ip, read-out: Potentiation of OTMN-induced tremor in rat
Procedure: Potentiation of cholinergic responses
Male rats (Sprague Dawley Alab Laboratorietjänst AB, Sollentuna, Sweden) weighing 150-180 g, 35-40 days of age, were used. The animals were allowed free access to food (R3, Ewos AB, Södertälje, Sweden) and water until the start of the experiments. The test compounds were injected intraperitoneally (i.p.) 30 minutes before injection of the muscarine agonist oxotremorine (OTM) into the neck (s.c.). Tremor intensity was assessed visually for a 60 minutes period following the injection of OTMN in rat housed in Macrolon cages (25x25x30 cm) (three per cage). The threshold dose of OTMN for eliciting tremor in rat is about 200 µg/kg.
Tremor intensity was scored using the following rating scale: 0 = no tremor; 1 = slight tremor (moderate, discontinuous tremor; 2 = strong tremor (intense, continuous tremor involving the whole body). The animals were scored 5, 10, 15, 30 and 60 minutes after injection of OTMN. The tremor was scored for a period of 30 seconds.
The values for each observation were summed over the entire observation period (5-60 minutes) and their median values for each group were calculated (total median score). Mann-Whitney U-test (two-tailed) was used to determine differences between the control OTMN group and test groups receiving the compounds + OTMN. […].
The lowest dose causing a significant (p<0.05) potentiation of the OTMN response was determined from log-dose response curves.

[1] = lowest dose causing a significant (p<0.05) potentiation of the OTMN response, from log-dose response curves, test compound i.p. 30 minutes before oxotremorine s.c., male Sprague Dawley rats, tremor scored 5-60 minutes

## CCC(N)CC(=O)C(C)(C)Cc1ccc(F)cc1.O=C(O)C(=O)O (racemic) [Example 1, 5-amino-2,2-dimethyl-1-(4-fluorophenyl)-3-heptanone oxalate]
[1]
  minimal effective dose: 0.63 mg/kg

## CC(N)C(=O)OC(C)(C)Cc1ccc(Cl)cc1 (centres unmarked) [Alaproclate, alaproclate, reference compound]
  minimal effective dose: 5 mg/kg

## CCC(N)CC(=O)C(C)(C)Cc1ccc(F)cc1 (centres unmarked) [Example 5, 5-amino-2,2-dimethyl-1-(4-fluorophenyl)-3-heptanone]
[1]
  minimal effective dose: 0.63 mg/kg

## CCC(N)CC(=O)C(C)(C)Cc1ccc(F)cc1 (centres unmarked) [Example 6, 5-amino-2,2-dimethyl-1-(4-fluorophenyl)-3-heptanone]
[1]
  Potentiation of OTMN-induced tremor in rat: 0.63 mg/kg

## CCC(N)CC(O)C(C)(C)Cc1ccc(F)cc1.O=C(O)C(=O)O (centres unmarked) [Example 7, 5-Amino-2,2-dimethyl-1-(4-fluorophenyl)-3-heptanol oxalate]
[1]
  minimal effective dose: 2.5 mg/kg

## CC(C)C(N)CC(O)C(C)(C)Cc1ccc(F)cc1.O=C(O)C(=O)O (centres unmarked) [Example 8, 5-Amino-1-(4-fluorophenyl)-2,2,6-trimethyl-3-heptanol oxalate]
[1]
  minimal effective dose: 10 mg/kg

## CCCCCC(N)CC(O)C(C)(C)Cc1ccc(F)cc1.O=C(O)C(=O)O (centres unmarked) [Example 9, 5-Amino-2,2-dimethyl-1-(4-fluorophenyl)-3-decanol oxalate]
[1]
  minimal effective dose: 5 mg/kg

## CC(C)C(N)CC(=O)C(C)(C)Cc1ccc(F)cc1.O=C(O)C(=O)O (centres unmarked) [Example 12, 5-Amino-1-(4-fluorophenyl)-2,2,6-trimethyl-3-heptanone oxalate]
[1]
  minimal effective dose: 2.5 mg/kg
